The experiment concerns the target T1, TbQSOX (Trypanosoma brucei, UniProt Q585M6).
T1 sequence (Q585M6 20-485): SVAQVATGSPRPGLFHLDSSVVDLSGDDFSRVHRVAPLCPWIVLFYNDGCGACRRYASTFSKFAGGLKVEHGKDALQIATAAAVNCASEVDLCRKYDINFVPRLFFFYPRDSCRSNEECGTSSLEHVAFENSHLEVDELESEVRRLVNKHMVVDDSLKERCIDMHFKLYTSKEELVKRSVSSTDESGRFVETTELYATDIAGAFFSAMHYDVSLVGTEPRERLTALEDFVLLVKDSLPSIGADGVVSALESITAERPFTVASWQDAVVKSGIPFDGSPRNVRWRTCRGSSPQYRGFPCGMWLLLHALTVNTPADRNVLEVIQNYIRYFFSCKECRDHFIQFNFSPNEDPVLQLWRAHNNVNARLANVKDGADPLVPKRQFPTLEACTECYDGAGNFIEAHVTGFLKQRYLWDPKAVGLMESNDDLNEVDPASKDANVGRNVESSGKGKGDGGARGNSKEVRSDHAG
The experiment in a line: UV/Vis spectrum of bound flavin in purified protein. The experiment is classed as binding. The settings on record: 50 mM phosphate pH 7.5, 1 mM EDTA; prosthetic group in Erv/ALR domain.

Data on 1 compound can be found in paper PMC2831140 (Biochemistry, 2010).

Take `Cc1cc2nc3c(=O)[nH]c(=O)nc-3n(C[C@H](O)[C@H](O)[C@H](O)COP(=O)(O)OP(=O)(O)OC[C@H]3O[C@@H](n4cnc5c(N)ncnc54)[C@H](O)[C@@H]3O)c2cc1C` [FAD]: the “UV/Vis spectrum of bound flavin in purified protein” value is on record as “found to be a stable, monomeric, FAD-containing protein”.
